Assay: method code SF-AS, from DOI: 10.1021/jm00089a008, PMID: 1317921
Conditions: pH 7.4

logD	Compound
1.14	CC(C)N(/C=N/c1ccn([C@H]2C[C@H](F)[C@@H](CO)O2)c(=O)n1)C(C)C
0.72	CC(C)N(/C=N/c1ccn([C@H]2CC[C@@H](CO)O2)c(=O)n1)C(C)C
-0.68	O=c1nc(/N=C/N2CCOCC2)ccn1C1CC(F)C(CO)O1 (stereo not drawn)

Reference: the SangsterLogP compilation
